{"source": "patent US20210128584A1", "about": "“USE OF GLUCOCORTICOID RECEPTOR ANTAGONISTS FOR THE TREATMENT OF AMYOTROPHIC LATERAL SCLEROSIS” (Corcept Therapeutics Incorporated, priority 2008, published 2021)", "origin": "cited, not measured here"}
{"smiles": "CC#C[C@]1(O)CC[C@H]2[C@@H]3CCC4=CC(=O)CCC4=C3[C@@H](c3ccc(N(C)C)cc3)C[C@@]21C", "note": "[Mifepristone, 17β-hydroxy-11β-(4-dimethyl-aminophenyl)-17α-(1-propynyl)-estra-4,9-dien-3-one]", "values": [{"measurement": "fraction of the daily dose excreted in the urine", "result": "less than 0.5%"}]}
